This note sets out measurements from ChEMBL document CHEMBL3044750, “Preparation of N-substituted aryl and alkyl carbamates and their inhibitory effect on oat seed germination” (2002).

The test system of assay [1] is Avena sativa. Nature of the assay: Inhibition of Avena sativa var. Zenshin seed germination assessed as root length at 1 uM after 6 days (reference value: 7 cm). Type of assay: functional.
Assay [2] concerns Avena sativa. Nature of the assay: Inhibition of Avena sativa var. Zenshin seed germination assessed as coleoptile length at 1 uM after 6 days (reference value: 9.5 cm). The format is functional.

For the molecule `O=C(NCSc1ccccc1)Oc1ccc(Cl)cc1Cl` [2,4-DICHLOROPHENYL PHENYLTHIOMETHYLCARBAMATE], the Activity in the assay on Avena sativa [1] and in the assay on Avena sativa [2] was 0 cm each time.
With `O=C(Nc1ccccc1)OCCCc1ccccc1` [3-PHENYLPROPYL PHENYLCARBAMATE], the Activity came out at 1.9 cm in the assay on Avena sativa [1] and 3.5 cm with Avena sativa [2].
For `O=C(NCSc1ccccc1)OCCCc1ccccc1` [3-PHENYLPROPYL PHENYLTHIOMETHYLCARBAMATE], in that order: 3.9 cm and 4.6 cm.
Take `COc1ccc(COC(=O)NCSc2ccccc2)cc1` [4-METHOXYBENZYL PHENYLTHIOMETHYLCARBAMATE]: the Activity in the assay on Avena sativa [1] was 0.9 cm; with Avena sativa [2] it was 1.4 cm.
For `O=C(Nc1ccccc1)OCCCCc1ccccc1` [4-PHENYLBUTYL PHENYLCARBAMATE], in that order: 1.2 cm and 4.9 cm.
For `O=C(Nc1ccccc1)OCCCCCc1ccccc1` [5-PHENYLPENTYL PHENYLCARBAMATE], in that order: 2.1 cm and 6.6 cm.
As for `O=C(NCCc1ccccc1)OCc1ccccc1` [BENZYL PHENETHYLCARBAMATE], the Activity with Avena sativa [1] is 2.8 cm; with Avena sativa [2] it was 5.2 cm.
The corresponding values for `O=C(Nc1ccccc1)OCc1ccccc1` [BENZYL PHENYLCARBAMATE] are 1.2 cm and 2.8 cm.
Consider `O=C(NCSc1ccccc1)OCc1ccccc1` [BENZYL PHENYLTHIOMETHYLCARBAMATE], for which the Activity in the assay on Avena sativa [1] and with Avena sativa [2] was 0 cm throughout.
Regarding `CCCCOC(=O)NCSc1ccccc1` [BUTYL PHENYLTHIOMETHYLCARBAMATE], the Activity is given as 3.4 cm with Avena sativa [1] and 2.6 cm in the assay with Avena sativa [2].
The corresponding values for `CC(C)OC(=O)Nc1cccc(Cl)c1` [CHLORPROPHAM] are 0 cm and 0 cm.
The corresponding values for `O=C(Nc1ccccc1)OC/C=C/c1ccccc1` [CINNAMYL PHENYLCARBAMATE] are 0.4 cm and 3.4 cm.
For `O=C(NCSc1ccccc1)OC/C=C/c1ccccc1` [CINNAMYL PHENYLTHIOMETHYLCARBAMATE], in that order: 2.6 cm and 2.2 cm.
In the case of `CCOC(=O)NCSc1ccccc1` [ETHYL PHENYLTHIOMETHYLCARBAMATE], the Activity in the assay with Avena sativa [1] is 1 cm; in the assay with Avena sativa [2], 0.8 cm.
The corresponding values for `CC(C)OC(=O)NCSc1ccccc1` [ISOPROPYL PHENYLTHIOMETHYLCARBAMATE] are 0 cm and 0 cm.
For `COC(=O)NCSc1ccccc1` [METHYL PHENYLTHIOMETHYLCARBAMATE], in that order: 0 cm and 0 cm.
The corresponding values for `O=C(Nc1ccccc1)OCCc1ccccc1` [PHENETHYL PHENYLCARBAMATE] are 0.2 cm and 0.3 cm.
Take `O=C(NCSc1ccccc1)OCCc1ccccc1` [PHENETHYL PHENYLTHIOMETHYLCARBAMATE]: the Activity in the assay on Avena sativa [1] and with Avena sativa [2] was 0 cm each time.
`O=C(Nc1ccc(Cl)cc1)Oc1ccccc1` [PHENYL 4-CHLOROPHENYLCARBAMATE]: the Activity with Avena sativa [1] turned out to be 4.1 cm; in the assay with Avena sativa [2], 8.1 cm.
For `O=C(Nc1ccc(F)cc1)Oc1ccccc1` [PHENYL 4-FLUOROPHENYLCARBAMATE], in that order: 4.8 cm and 6.4 cm.
For `COc1ccc(NC(=O)Oc2ccccc2)cc1` [PHENYL 4-METHOXYPHENYLCARBAMATE], in that order: 7.7 cm and 8.3 cm.
The corresponding values for `Cc1cccc(NC(=O)Oc2ccccc2)c1` [PHENYL M-TOLYLCARBAMATE] are 4.4 cm and 5.6 cm.
Turning to `O=C(Nc1ccccc1)Oc1ccccc1` [PHENYL PHENYLCARBAMATE], the Activity with Avena sativa [1] is 1.9 cm; in the assay with Avena sativa [2] it was 4.7 cm.
For `O=C(NCSc1ccccc1)Oc1ccccc1` [PHENYL PHENYLTHIOMETHYLCARBAMATE], in that order: 0 cm and 0 cm.
For `CCCOC(=O)NCSc1ccccc1` [PROPYL PHENYLTHIOMETHYLCARBAMATE], the Activity with Avena sativa [1] came to 1.4 cm; with Avena sativa [2], 1.7 cm.
